Experimental data reported in ChEMBL document CHEMBL2375347, “Discovery of adamantane based highly potent HDAC inhibitors” (Bioorg Med Chem Lett, 2013).

Tests used:
[1] = test system: U-251; assay: Cytotoxicity against human U251 cells by MTT assay; format: functional
[2] = test system: HCT-116; assay: Cytotoxicity against human HCT116 cells by MTT assay; format: functional
[3] = Inhibition of mouse liver HDAC by fluorescence assay
[4] = test system: NCI-H460; assay: Cytotoxicity against human NCI-H460 cells by MTT assay; format: functional
[5] = test system: Mus musculus; assay: Toxicity in SCID mouse xenografted with human NCI-H460 cells assessed as loss in body weight at 5 mg/kg, ip qd for 21 days relative to control; format: organism-based; parameters: dose 5 mg/kg, route intraperitoneal; settings: in vivo, 504 h
[6] = test system: NCI-H460; assay: Antitumor activity against human NCI-H460 cells xenografted in SCID mouse assessed as tumor growth inhibition at 5 mg/kg, ip qd for 21 days; format: functional; settings: 504 h, route intraperitoneal, read-out: TGI
[7] = Toxicity in SCID mouse xenografted with human NCI-H460 cells; format: organism-based; settings: in vivo

In the case of O=C(/C=C/c1ccc(CNC23CC4CC(CC(Cl)(C4)C2)C3)cc1)NO, the GI50 [1] is reported as 14000 nM, the GI50 [2] is reported as 11000 nM and the IC50 [3] is reported as 40 nM. For the same molecule, the GI50 [4] was 4000 nM.

Molecule O=C(/C=C/c1ccc(CNC(=O)C23CC4CC(CC(C4)C2)C3)cc1)NO has a GI50 [1] of 170 nM, a GI50 [2] of 100 nM and an IC50 [3] of 67 nM. It also gave a GI50 [4] of 100 nM.

For O=C(/C=C/c1ccc(CNCC23CC4CC(CC(C4)C2)C3)cc1)NO, the GI50 [1] was 800 nM, the GI50 [2] was 500 nM and the IC50 [3] was 1.1 nM. The GI50 [4] was 300 nM.

O=C(/C=C/c1ccc(CNC(=O)C23CC4CC(CC(F)(C4)C2)C3)cc1)NO showed a GI50 [1] of 1900 nM, a GI50 [2] of 500 nM and an IC50 [3] of 77 nM. The GI50 [4] was 500 nM.

O=C(/C=C/c1ccc(CNCC23CC4CC(CC(F)(C4)C2)C3)cc1)NO showed a GI50 [1] of 180 nM, a GI50 [2] of 30 nM and an IC50 [3] of 6 nM. The GI50 [4] was 30 nM.

For O=C(/C=C/c1ccc(CNC(=O)CC23CC4CC(CC(C4)C2)C3)cc1)NO, the GI50 [1] was 1600 nM, the GI50 [2] was 1100 nM and the IC50 [3] was 1.8 nM. For the same molecule, the GI50 [4] was 1300 nM.

Work on O=C(/C=C/c1ccc(CNCCC23CC4CC(CC(C4)C2)C3)cc1)NO yielded a GI50 [1] of 1300 nM, a GI50 [2] of 450 nM and an IC50 [3] of 0.9 nM. For the same molecule, the GI50 [4] was 1100 nM.

Molecule O=C(/C=C/c1ccc(CNC2C3CC4CC(C3)CC2C4)cc1)NO (stereo unspecified) has a GI50 [1] of 170 nM, a GI50 [2] of 80 nM and an IC50 [3] of 60 nM. It also gave a GI50 [4] of 70 nM.

O=C(/C=C/c1ccc(CNC(=O)CC2C3CC4CC(C3)CC2C4)cc1)NO (stereo unspecified) gave a GI50 [1] of 260 nM, a GI50 [2] of 500 nM and an IC50 [3] of 8 nM. It also gave a GI50 [4] of 400 nM.

O=C(/C=C/c1ccc(CNCCC2C3CC4CC(C3)CC2C4)cc1)NO (stereo unspecified) showed a GI50 [1] of 50 nM, a GI50 [2] of 60 nM and an IC50 [3] of 0.28 nM. For the same molecule, the GI50 [4] was 10 nM.

O=C(/C=C/c1ccc(CN2CC3CC4CC(C3)CC2C4)cc1)NO gave a GI50 [1] of 1700 nM, a GI50 [2] of 1800 nM and an IC50 [3] of 110 nM. For the same molecule, the GI50 [4] was 4900 nM.

Molecule O=C(/C=C/c1ccc(CNC(=O)C23CC4CC(CC2C4)C3)cc1)NO has a GI50 [1] of 600 nM, a GI50 [2] of 380 nM and an IC50 [3] of 25 nM. For the same molecule, the GI50 [4] was 350 nM.

With O=C(/C=C/c1ccc(CNCC23CC4CC(CC2C4)C3)cc1)NO the Activity [5] was under 10%, the inhibition in vivo at 5 mg/kg [6] was 45% and the MTD [7] was 7.5 mg/kg. It also gave a GI50 [1] of 30 nM, a GI50 [2] of 10 nM and an IC50 [3] of 0.02 nM. For the same molecule, the GI50 [4] was 10 nM.

Molecule CC(NCc1ccc(/C=C/C(=O)NO)cc1)C12CC3CC(CC1C3)C2 (stereo unspecified) has a GI50 [1] of 50 nM, a GI50 [2] of 30 nM and an IC50 [3] of 0.03 nM. It also gave a GI50 [4] of 30 nM.

For O=C(/C=C/c1ccc(CNC23CC4CC(CC(C4)C2)C3)cc1)NO, the GI50 [1] was 2700 nM, the GI50 [2] was 500 nM and the IC50 [3] was 70 nM. It also gave a GI50 [4] of 2800 nM.

In the case of CCOC12CC3CC(CC(NCc4ccc(/C=C/C(=O)NO)cc4)(C3)C1)C2, the GI50 [1] is reported as 2800 nM, the GI50 [2] is reported as 1000 nM and the IC50 [3] is reported as 460 nM. The GI50 [4] was 6000 nM.

Molecule COC12CC3CC(CC(NCc4ccc(/C=C/C(=O)NO)cc4)(C3)C1)C2 has a GI50 [1] of 7000 nM, a GI50 [2] of 1600 nM and an IC50 [3] of 260 nM. It also gave a GI50 [4] of 7000 nM.

O=C(/C=C/c1ccc(CNC23CC4CC(CC(O)(C4)C2)C3)cc1)NO showed a GI50 [1] of 4200 nM, a GI50 [2] of 3000 nM and an IC50 [3] of 250 nM. The GI50 [4] was 8000 nM.

Work on O=C(/C=C/c1ccc(CNC23CC4CC(CC(CO)(C4)C2)C3)cc1)NO yielded a GI50 [1] of 6000 nM, a GI50 [2] of 2800 nM and an IC50 [3] of 240 nM. It also gave a GI50 [4] of 9500 nM.

With O=C(/C=C/c1ccc(CNC23CC4CC(C2)CC(c2ccccc2)(C4)C3)cc1)NO the GI50 [1] was 3200 nM, the GI50 [2] was 2200 nM and the IC50 [3] was 440 nM. It also gave a GI50 [4] of 5000 nM.

O=C(CCCCCCC(=O)Nc1ccccc1)NO [VORINOSTAT] gave a GI50 [1] of 2000 nM, a GI50 [2] of 1000 nM and a GI50 [4] of 1000 nM.
